Where a chain is given by its changes, count along the chain named. ≈ marks a conversion by molar mass, not a printed value. Like-named read-outs stand apart in the source and are kept apart here. Bounds are passed on as bounds.

Data set [1] is described as follows: Microsomal metabolic stability, mouse. Type of data set: in vitro ADME. To be noted: pH 7.4; mouse liver microsomes.
Data set [2] can be described thus: Human plasma protein binding (rapid equilibrium dialysis, Cyprotex). Type of data set: in vitro ADME. The following applies: human, plasma, human plasma. (In general: In equilibrium dialysis only unbound substance equilibrates across the membrane.)
The next data set addresses T1, R172Q mIDH2 (Homo sapiens, UniProt P48735, R172Q).
T1 sequence (P48735 40-452 R172Q): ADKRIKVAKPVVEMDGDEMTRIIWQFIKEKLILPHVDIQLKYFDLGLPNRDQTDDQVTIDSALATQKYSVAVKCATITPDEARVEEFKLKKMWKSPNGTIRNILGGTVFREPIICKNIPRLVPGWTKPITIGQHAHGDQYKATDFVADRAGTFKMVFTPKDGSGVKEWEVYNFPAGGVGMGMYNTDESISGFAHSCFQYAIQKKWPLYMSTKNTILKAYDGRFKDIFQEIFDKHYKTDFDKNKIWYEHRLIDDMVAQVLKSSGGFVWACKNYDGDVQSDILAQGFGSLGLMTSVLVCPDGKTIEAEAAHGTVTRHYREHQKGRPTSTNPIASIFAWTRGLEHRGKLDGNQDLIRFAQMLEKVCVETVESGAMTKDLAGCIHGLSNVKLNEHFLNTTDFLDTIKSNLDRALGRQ
In words: mIDH2-R172Q enzyme assay (Reaction Biology), diaphorase/resazurin coupled. The following applies: for Emax: read-out: IDH2 R172Q % EMax. A general note: Resazurin is reduced to fluorescent resorufin, in cell work by metabolically active cells.

A short description of another data set: in vitro. The following applies: human, Caco-2.
In the next data set the target is T2, hERG channel (Homo sapiens, UniProt Q12809).
T2 construct: host or cells: U2OS cells (ATCC)
T2 sequence (Q12809 whole entry): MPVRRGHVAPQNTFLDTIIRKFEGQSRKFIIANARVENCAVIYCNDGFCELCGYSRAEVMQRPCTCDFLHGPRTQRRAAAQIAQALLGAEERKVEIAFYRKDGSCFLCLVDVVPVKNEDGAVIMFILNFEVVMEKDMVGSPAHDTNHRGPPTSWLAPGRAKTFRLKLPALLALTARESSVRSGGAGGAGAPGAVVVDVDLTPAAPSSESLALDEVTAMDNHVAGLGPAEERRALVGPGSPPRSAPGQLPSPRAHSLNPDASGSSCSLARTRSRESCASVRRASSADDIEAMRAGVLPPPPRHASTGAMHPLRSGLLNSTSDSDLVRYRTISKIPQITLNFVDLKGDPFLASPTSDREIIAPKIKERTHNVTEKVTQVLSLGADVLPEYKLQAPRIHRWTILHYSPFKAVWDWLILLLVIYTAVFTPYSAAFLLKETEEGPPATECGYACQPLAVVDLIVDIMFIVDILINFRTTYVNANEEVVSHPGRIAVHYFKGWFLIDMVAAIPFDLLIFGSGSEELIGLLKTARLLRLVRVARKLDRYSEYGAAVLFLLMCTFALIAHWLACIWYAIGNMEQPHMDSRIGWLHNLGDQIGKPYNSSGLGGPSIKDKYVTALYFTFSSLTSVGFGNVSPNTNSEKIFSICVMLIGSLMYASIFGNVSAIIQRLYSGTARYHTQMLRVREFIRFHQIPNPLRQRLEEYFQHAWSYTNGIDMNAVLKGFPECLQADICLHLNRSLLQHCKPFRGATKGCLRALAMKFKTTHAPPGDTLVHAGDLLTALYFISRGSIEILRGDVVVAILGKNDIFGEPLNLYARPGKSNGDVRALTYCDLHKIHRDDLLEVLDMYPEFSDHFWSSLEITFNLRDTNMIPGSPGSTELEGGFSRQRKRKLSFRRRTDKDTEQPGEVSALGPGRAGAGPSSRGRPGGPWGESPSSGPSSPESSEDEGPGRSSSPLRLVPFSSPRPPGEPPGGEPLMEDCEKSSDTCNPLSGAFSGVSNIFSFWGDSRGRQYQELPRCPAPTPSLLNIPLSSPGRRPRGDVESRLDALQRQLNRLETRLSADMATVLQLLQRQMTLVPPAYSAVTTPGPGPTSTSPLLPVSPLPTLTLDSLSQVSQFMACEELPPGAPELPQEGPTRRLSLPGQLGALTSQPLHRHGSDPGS
In words: hERG FluxOR-based thallium flux assay. Type of data set: cell-based. The following applies: In Vitro Toxicity; for Emax: human, U2OS cells transduced with hERG-BacMam virus.

Data set [3] can be described thus: High-throughput kinetic solubility (µSOL), pH 7.4. Type of data set: physicochemical. The following applies: aqueous solution pH 7.4, pH 7.4, aqueous buffer, kinetic from dmso stock; read-out: HT Kinetic Solubility, Solubility. The protocol:
High-Throughput kinetic solubility test assay
Pion’s patented µSOL assay for kinetic solubility determination was used. In this assay, the classical saturation shake- flask solub ility method was adapted to a 96-well microtiter plate format and a co-solvent method with n- propanol as the […] was utilized. Test compounds were prepared in 10 mM DMSO solutions (45 µ L), and diluted with the co-solve nt to a final drug conce ntration of […]
Samples are incubated at room temperature for 6 hrs t o achieve equilibrium. The samples were then filtered to remove any precipitate formed. The concentrat ion of the compound in the filtrate was measured by UV ab sorbance. […]
used for quantitation of unknown drug concent ration in filtrate. Spectroscopically pure 1- Propanol was used as acosolvent to suppress precipitation in the reference

Data set [4] can be described thus: Microsomal metabolic stability, rat. Type of data set: in vitro ADME. The following applies: pH 7.4; rat liver microsomes. (In general: Liver microsomes are a subcellular fraction often used to study metabolism.)
A short description of data set [5]: Microsomal metabolic stability, human. Type of data set: in vitro ADME. To be noted: pH 7.4; human liver microsomes.
In the next data set the target is T3, IDH2 WT (Homo sapiens, UniProt P48735).
T3 sequence (P48735 40-452): T1 sequence (P48735 40-452 R172Q) with Q133R
In words: Wild type IDH2 enzyme assay, diaphorase/resazurin coupled. To be noted: for Emax: read-out: IDH2 % EMax.

The next data set deals with IDH1 WT (Homo sapiens, UniProt O75874). In words: Wild type IDH1 enzyme assay, diaphorase/resazurin coupled. The following applies: for EC50: IDH1 WT EC50, Biochemical; for Emax: read-out: IDH1 WT % EMax.
Sequence of IDH1 WT (O75874 whole entry): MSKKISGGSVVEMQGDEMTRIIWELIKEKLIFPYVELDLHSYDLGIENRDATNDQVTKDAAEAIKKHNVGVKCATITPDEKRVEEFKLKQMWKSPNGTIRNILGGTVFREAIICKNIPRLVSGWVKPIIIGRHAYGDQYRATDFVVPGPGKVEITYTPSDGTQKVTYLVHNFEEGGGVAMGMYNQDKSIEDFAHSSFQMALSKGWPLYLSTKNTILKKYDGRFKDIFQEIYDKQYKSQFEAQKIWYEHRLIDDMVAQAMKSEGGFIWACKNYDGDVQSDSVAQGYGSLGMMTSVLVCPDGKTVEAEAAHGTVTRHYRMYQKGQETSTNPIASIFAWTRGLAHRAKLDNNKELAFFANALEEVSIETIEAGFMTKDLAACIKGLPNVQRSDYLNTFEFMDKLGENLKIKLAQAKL
Data set [6] can be described thus: High-throughput PAMPA (GIT), pH 7.4. Type of data set: in vitro ADME. The following applies: read-out: HT PAMPA Permeability. The source says:
In Vitro Physicochemical and Drug Metabolism Studies:
High-Throughput PAMPA assay
The stirring double- sin k PAMPA method patented by pION Inc. (Billeri ca, MA) was employed to determine the permeability of compounds via PAMPA passive diffusion. The PAMPA lipid membrane consisted of an artificial membrane of a proprietary lipid mixture and dodecane (Pion Inc.), optimized to predict gastrointestinal tract (GIT) passive diffusion permeability, was immobilized on a plastic matrix of a 96 well “donor” filter plate placed above a 96 well “a cceptor” plate. A pH 7.4 solution was used in both donor and acceptor wells. The test articles, stocked in 10 mM DMSO solutions, were diluted to 0.05 mM in aqueous buffer (pH 7.4) , and the concentration of DMSO was 0.5% in the final solution. During the 30-min permeation period at room temperature, the test samples in the donor compartment were stirred using the Gutbox te chnology (Pion Inc.) to reduce the unstirred water layer. The test article concentrations in the donor and acceptor compartments were measured using an UV plate reader (Nano Quant, Infinite 200 […]
PRO, Tecan Inc., Männedorf, Switzerland). Permeability calculations were performed using Pion Inc. software and were expressed in units of 10-6 cm/s. […]

A further data set deals with human hepatocytes. In words: Human hepatocyte cytotoxicity (CellTiter-Glo, 72 hr). The following applies: Homo sapiens, Hepatocyte, read-out: Human Hepatocytes EC50.
Assay in data set [7]: as above
To be noted: both, human, cryopreserved human hepatocytes.

In data set [8] the target is P-glycoprotein (P-gp, MDR1, ABCB1) (Homo sapiens, UniProt P08183). In words: Bidirectional MDCK-MDR1 permeability assay (Cyprotex). To be noted: dog, MDCK-MDR1.
Sequence of P-glycoprotein (P-gp, MDR1, ABCB1) (P08183 whole entry): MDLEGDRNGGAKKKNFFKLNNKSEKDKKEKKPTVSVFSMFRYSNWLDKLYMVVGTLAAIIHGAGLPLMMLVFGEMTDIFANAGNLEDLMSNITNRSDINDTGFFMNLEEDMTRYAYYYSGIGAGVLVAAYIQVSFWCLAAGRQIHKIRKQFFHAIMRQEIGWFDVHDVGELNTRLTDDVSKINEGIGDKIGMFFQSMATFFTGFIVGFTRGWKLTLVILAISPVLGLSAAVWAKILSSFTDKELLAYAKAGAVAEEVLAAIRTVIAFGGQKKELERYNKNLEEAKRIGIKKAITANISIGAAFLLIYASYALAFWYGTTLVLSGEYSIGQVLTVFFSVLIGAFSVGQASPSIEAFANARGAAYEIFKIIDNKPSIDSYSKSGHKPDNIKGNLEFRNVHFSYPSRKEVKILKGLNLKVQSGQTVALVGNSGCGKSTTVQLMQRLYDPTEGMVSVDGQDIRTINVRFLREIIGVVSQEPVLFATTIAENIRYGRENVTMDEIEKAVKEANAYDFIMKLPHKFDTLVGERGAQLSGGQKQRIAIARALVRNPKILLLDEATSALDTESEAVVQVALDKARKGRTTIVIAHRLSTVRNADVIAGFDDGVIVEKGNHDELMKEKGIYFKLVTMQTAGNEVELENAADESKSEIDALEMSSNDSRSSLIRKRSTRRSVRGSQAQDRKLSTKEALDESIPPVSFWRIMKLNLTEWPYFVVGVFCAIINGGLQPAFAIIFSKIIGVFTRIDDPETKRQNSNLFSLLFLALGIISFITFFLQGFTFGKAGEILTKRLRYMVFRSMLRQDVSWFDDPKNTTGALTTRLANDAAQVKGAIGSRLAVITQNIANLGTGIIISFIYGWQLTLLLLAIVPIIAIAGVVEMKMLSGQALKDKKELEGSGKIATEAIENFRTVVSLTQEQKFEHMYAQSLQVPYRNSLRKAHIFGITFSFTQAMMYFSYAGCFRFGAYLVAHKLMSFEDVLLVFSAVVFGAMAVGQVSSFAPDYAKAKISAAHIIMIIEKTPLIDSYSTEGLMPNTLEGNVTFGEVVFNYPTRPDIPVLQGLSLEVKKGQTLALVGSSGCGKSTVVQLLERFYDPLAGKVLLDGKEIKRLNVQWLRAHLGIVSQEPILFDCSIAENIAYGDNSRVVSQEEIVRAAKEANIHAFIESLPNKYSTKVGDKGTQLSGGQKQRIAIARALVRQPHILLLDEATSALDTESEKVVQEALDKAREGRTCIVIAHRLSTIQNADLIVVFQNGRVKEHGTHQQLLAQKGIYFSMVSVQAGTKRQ
The mark [9] stands for this setting: read-out: Human Plasma Protein Binding % Unbound.

In general, half-life refers to the time in which the quantity being followed falls by half. The low end stands for fast loss, the high end for slow loss. What is called Emax is the maximal effect, on the per cent scale that the assay sets. Usually Papp A→B stands for the apparent permeability from the apical to the basolateral side of a cell layer. A low value points to slow passage. The term Papp B→A denotes the apparent permeability from the basolateral to the apical side of a cell layer. As usually defined, the EC50 is the concentration at which the effect is half-maximal. The kinetic solubility is solubility judged after dilution from a stock solution rather than from solid. In the case of `O=C(Nc1cccc(C(F)(F)F)c1)Nc1cc(S(=O)(=O)NC2CC2)ccc1-c1ccsc1` [AGI-6780], the half-life at 1 µM in data set [1] was 4.6 min; in data set [4] it was 4.5 min; in [5] it was 3.1 min. The fraction unbound at 4 h, 5 µM in [2] (read-out: Human Plasma Protein Binding % Bound (converted)) was 0.001; in data set [2] (setting [9]), 0.00083. Besides, the Emax was 74.4% at R172Q mIDH2, 99.8% on hERG channel, 85.2% on IDH2 WT and 8.1% at IDH1 WT. The compound also gave a Papp A→B at 2 h, 10 µM in “in vitro” of 0.85 ×10⁻⁶ cm/s. Further, the Papp B→A at 2 h, 10 µM in the data set “in vitro” is 12.5 ×10⁻⁶ cm/s. In addition, the EC50 was 25.1 µM on hERG channel, above 30 µM at IDH1 WT and 21.9 µM in the data set on human hepatocytes. In [3], the kinetic solubility at 6 h amounted to 0.374 µM (≈ 0.18 µg/mL). The Papp at 30 min, 0.05 mM in data set [6] was 523 ×10⁻⁶ cm/s. In [7], this compound came in with an Emax at 72 h of 108%.

The IC50 is the concentration needed to halve the response being measured. Low values mean greater potency in that assay, high ones weaker potency in that assay. With `CC(C)Nc1nc(Nc2ccccc2)nc(-c2ccccc2)n1` [IDH2-C100], the half-life at 1 µM in [1] was found to be 13.5 min; in [4], 26.7 min; in data set [5], 20.6 min. Further, the fraction unbound at 4 h, 5 µM in [2] (setting [9]) was 0.00011. In addition, the EC50 is 0.343 µM at R172Q mIDH2; above 30 µM at hERG channel; 6.59 µM at IDH2 WT; above 30 µM at IDH1 WT; above 30 µM in the data set with human hepatocytes. At R172Q mIDH2, this compound yielded an IC50 of around 1 µM. Further, the Emax at R172Q mIDH2 is 72.2%; at hERG channel, 7.2%; on IDH2 WT it was 84.7%; at IDH1 WT it was 11.8%. The Papp A→B at 2 h, 10 µM in the data set “in vitro” was 0.57 ×10⁻⁶ cm/s. This compound also yielded a Papp B→A at 2 h, 10 µM in “in vitro” of 2.34 ×10⁻⁶ cm/s. For the same compound, the kinetic solubility at 6 h in [3] came out at 0.458 µM (≈ 0.14 µg/mL). The Papp at 30 min, 0.05 mM in data set [6] was 482 ×10⁻⁶ cm/s. Further, the Emax at 72 h in data set [7] was 31.5%.

As a reminder, the efflux ratio is a quotient of directional permeabilities that is used to spot active efflux. Consider `CN(C)C(=O)C(CCN1CCC(O)(c2ccc(Cl)cc2)CC1)(c1ccccc1)c1ccccc1` [loperamide], for which the efflux ratio at 2 h, 10 µM in data set [8] was around 350.

These data come from PMC5630632, “Assessing inhibitors of mutant isocitrate dehydrogenase using a suite of pre-clinical discovery assays” (Scientific Reports, 2017).
